The text below walks through data of US9884812B2, “Use of DDX3X inhibitors for the treatment of pneumovirus infections” (priority 2014, dated 2018).

Read-outs that look alike come from different tables or passages of the source.

A short description of data set [1]: Solubility in cell medium. Type of data set: physicochemical. The settings on record: solution of ligand in DMSO (20 mM) diluted in cell media to 100 μM; scale from 'very poor' (almost insoluble) to 'very good' (freely soluble over extended periods at 4° C.).
The next data set has as its system HEp2 or BSC1 cells. Put plainly: Toxicity to cells in the TCID50 screen (mock control). The data set is classed as cell-based. How it is done:
This method provides a rapid approach to initially screen compounds and was developed as an increased number of compounds were synthesised. […] Virus was then added over 5 different half log dilutions starting at a multiplicity of infection of 0.02 plus mock control. Three dilutions of compound plus a DMSO control were screened per plate. […] Identical plate repeats for each compound dilution were fixed in subsequent days as indicated.

In another data set the test system is RSV. Put plainly: 96 well plate TCID50 (cellular RSV TCID50 assay). The data set is classed as cell-based. The settings on record: summary of activities in cellular RSV TCID50 assay; symbols − to +++++ not defined. How it is done:
This method provides a rapid approach to initially screen compounds and was developed as an increased number of compounds were synthesised. Cells of a standard cell line known to support pneumovirus replication (typically HEp2 or BSC1 cells) were grown to 95% confluence in a 96 well plate. Virus was then added over 5 different half log dilutions starting at a multiplicity of infection of 0.02 plus mock control. Three dilutions of compound plus a DMSO control were screened per plate. […] Identical plate repeats for each compound dilution were fixed in subsequent days as indicated.
Stained plates were read at 595 nm, higher optical density (OD) readings indicate more viable cells remain.

Another data set concerns hRSV (strain A2). Description: Plaque inhibition assay, hRSV. The data set is classed as cell-based, human respiratory syncytial virus. How it is done: Example: Plaque inhibition assay
An identical assay procedure was carried out for hRSV (strain A2) bovine RS (strain Snook) and PVM (strain 15). Virus stocks were diluted 10 fold in GMEM (Invitrogen) so that the wells containing cells received sufficient virus to generate approximately 2000, 200 and 20 plaques per well.
The overlay medium also contained the compound to be tested at appropriate concentrations. Typically the 6 concentrations of the test compounds used were: 100 μM, 31.6 μM, 10 μM, 3.16 μM, 1 μM and 0.316 μM.
Stocks of the test compounds were prepared in DMSO (Sigma) (carrier). Each stock compound was diluted 1 in 200 in overlay medium to give dilutions stated above.
Cells of a standard cell line known to support pneumovirus replication (typically HEp2 or BSC1 cells) were grown in standard 12 well plates at 37° C. in an atmosphere of 5% (v/v) CO2 until confluent. Medium was aspirated from the cells and replaced with 200 μl aliquots of virus. Aliquots were prepared by diluting virus stocks 10-fold in GMEM (Invitrogen) as described above with no FCS. A mock (no virus) was also set up to test cell viability. The virus was incubated with the cells for 1 hour at 33° C. with gentle rocking every 5-10 minutes. The inocula were removed and 2 ml of overlay medium was added. Overlay medium was either test (plus compound) or control (medium alone or medium containing DMSO). The plates were incubated at 33° C. for 4-8 days to allow plaques to develop as indicated. A volume of 1 ml of additional overlay medium (containing the test compound as appropriate) was added every 3 days. All virus dilutions were carried out with each concentration of test compound, or treated as controls, and each was carried out in triplicate.
Following incubation, cells were fixed by addition of an equal volume of 4% (v/v) glutaraldehyde (Sigma) in PBS with further incubation for a minimum of 2 hours. The fixing solution was washed off under a slow flowing stream of water and 1 ml of crystal violet (0.075% w/v: Sigma) was added and left for 20 minutes at room temperature. The crystal violet was removed and the fixed cell monolayers washed. Plates were air dried. Plaques counts were recorded from wells with >20 and <200 in number. These numbers provide the most robust statistical reliability for viable plaque counts.
This experimental approach screens the ability of compounds to block the formation of plaques.

[2] abbreviates: cellular RSV TCID50 assay tables.

As to `O=C(Nc1cccc(NC(=O)Nc2cccc([N+](=O)[O-])c2)c1)Nc1cccc([N+](=O)[O-])c1` [Compound 31, 1,1′-(1,3-phenylene)bis(3-(3-nitrophenyl)urea)], the “Solubility in cell medium” value in data set [1] was “very poor”. The Toxicity entry with HEp2 or BSC1 cells is reported as “toxic at 100 μM”.
Turning to `Cc1ccccc1NC(=S)NCCN(C)C` [Compound 29, 3-[2-(dimethylamino)ethyl]-1-(2-methylphenyl)thiourea], in data set [1], the “Solubility in cell medium” value is recorded as “good”. Besides, the Toxicity entry in the data set on HEp2 or BSC1 cells (setting [2]) is recorded as “low”.
In the same order, the values of `Cc1ccccc1NC(=O)Nc1cccnc1` [Compound 10, 1-(2-methylphenyl)-3-(pyridin-3-yl)urea] are “moderate” and “low”.
In the same order, the values of `CSc1ccc(NC(=O)Nc2ccccc2C)cc1` [Compound 14, 3-(2-methylphenyl)-1-[4-(methylsulfanyl)phenyl]urea] are “good” and “low”.
In the same order, the values of `CC1CCCCC1NC(=O)Nc1cccc(C#N)c1` (stereo not drawn) [Compound 23, 1-(3-cyanophenyl)-3-(2-methylcyclohexyl)urea] are “moderate” and “low”.
`N#Cc1cccc(NC(=O)Nc2ncccn2)c1` [Compound 12, 3-(3-cyanophenyl)-1-(pyrimidin-2-yl)urea]: the “Solubility in cell medium” value in data set [1] is listed as “poor”. Moreover, in the data set on HEp2 or BSC1 cells (setting [2]), the Toxicity result was “toxic at 100 μM”.
In the case of `CCCCCCCCNC(=O)Nc1ccccc1C` [Compound 25, 1-(2-methylphenyl)-3-octylurea], the “Solubility in cell medium” value in data set [1] is reported as “moderate”. In addition, the Toxicity entry in the data set with HEp2 or BSC1 cells (setting [2]) is reported as “low”.
In the same order, the values of `Cc1ccccc1NC(=O)Nc1ccccn1` [Compound 9, 1-(2-methylphenyl)-3-(pyridin-2-yl)urea] are “good” and “low”.
In the same order, the values of `CCCCCCCCNC(=S)Nc1ccccc1C` [Compound 28, 1-(2-methylphenyl)-3-octylthiourea] are “good” and “low”.
In the same order, the values of `CCCCCCCCNC(=O)Nc1ccc(C#N)cc1` [Compound 24, 1-(4-cyanophenyl)-3-octylurea] are “good” and “low”.
As for `CC1CCCCC1NC(=O)Nc1ccc(C#N)cc1` (stereo not drawn) [Compound 22, 1-(4-cyanophenyl)-3-(2-methylcyclohexyl)urea], in data set [1], the “Solubility in cell medium” value is listed as “moderate”. Besides, the Toxicity entry with HEp2 or BSC1 cells (setting [2]) is “low”.
In the same order, the values of `CC1CCCCC1NC(=O)Nc1cccc([N+](=O)[O-])c1` (stereo not drawn) [Compound 21, 3-(2-methylcyclohexyl)-1-(3-nitrophenyl)urea] are “moderate” and “toxic at 100 μM”.
Turning to `COc1cccc(NC(=O)Nc2cccc(NC(=O)Nc3cccc(OC)c3)c2)c1` [Compound 34, 1,1′-(1,3-phenylene)bis(3-(3-methoxyphenyl)urea)], the “Solubility in cell medium” value in data set [1] is on record as “poor”. Moreover, in the data set on HEp2 or BSC1 cells (setting [2]), the Toxicity entry was “toxic at 100 μM”.
In the same order, the values of `Cc1ccccc1NC(=O)N1CCOCC1` [Compound 27, N-(2-methylphenyl)morpholine-4-carboxamide] are “good” and “low”.
In the same order, the values of `N#Cc1cccc(NC(=O)Nc2cccnc2)c1` [Compound 7, 3-(3-cyanophenyl)-1-(pyridin-3-yl)urea] are “moderate” and “low”.
In the same order, the values of `CSc1cccc(NC(=O)Nc2cccc(NC(=O)Nc3cccc(SC)c3)c2)c1` [Compound 33, 1,1′-(1,3-phenylene)bis(3-(3-(methylthio)phenyl)urea)] are “poor” and “toxic at 100 μM”.
For `Cc1ccccc1NC(=O)NCCN(C)C` [Compound 26, 3-[2-(dimethylamino)ethyl]1-(2-methylphenyl)urea], the “Solubility in cell medium” value in data set [1] is recorded as “good”. The Toxicity result in the data set on HEp2 or BSC1 cells (setting [2]) is “low”.
With `N#Cc1ccc(NC(=O)Nc2ccccn2)cc1` [Compound 8, 3-(4-cyanophenyl)-1-(pyridin-2-yl)urea], in data set [1], the “Solubility in cell medium” value is listed as “moderate”. The Toxicity result in the data set on HEp2 or BSC1 cells (setting [2]) is on record as “toxic at 100, 32, 10 μM”.
In the same order, the values of `Cc1ccccc1NC(=O)Nc1cccc([S+](C)[O-])c1` (stereo not drawn) [Compound 5, 3-(3-methanesulfinylphenyl)-1-(2-methylphenyl)urea] are “good” and “very low”.
In the same order, the values of `Cc1ccccc1NC(=S)Nc1cccc(C#N)c1` [Compound 18, 1-(3-cyanophenyl)-3-(2-methylphenyl)thiourea] are “very good” and “low”.
As for `COc1ccc(NC(=O)Nc2ccccc2C)cc1OC` [Compound 45, 1-(3,4-dimethoxyphenyl)-3-(o-tolyl)urea], the result with RSV was Inactive. Further, the “Solubility in cell medium” value in data set [1] is recorded as “Good”. Further, in the data set on HEp2 or BSC1 cells (setting [2]), the Toxicity entry is “Low”.
For the molecule `Cc1ccccc1NC(=S)Nc1cccc([N+](=O)[O-])c1` [Compound 17, 3-(2-methylphenyl)-1-(3-nitrophenyl)thiourea], in data set [1], the “Solubility in cell medium” value was “good”. Further, the Toxicity result in the data set on HEp2 or BSC1 cells (setting [2]) is “toxic at 100 μM”.
In the same order, the values of `CC(=O)c1cccc(NC(=O)Nc2ccccc2C)c1` [Compound 2, 1-(3-acetylphenyl)-3-(2-methylphenyl)urea] are “good” and “very low”.
The term IC50 denotes the concentration that inhibits the measured activity by half. Turning to `Cc1ccccc1NC(=O)Nc1cccc(C#N)c1` [Compound 3, 3-(3-cyanophenyl)-1-(2-methylphenyl)urea], the “Solubility in cell medium” value in data set [1] is “good”. Further, the Toxicity entry in the data set with HEp2 or BSC1 cells (setting [2]) was “low”. In addition, in the data set with hRSV (strain A2) (hRSV plaque assay), the “Plaque size relative to DMSO control” value is “much smaller”. In addition, in the data set on hRSV (strain A2) (hRSV, HEp2 cells, 5 days, at 31.6 μM and to some extent 10 μM), the Plaque size entry is “very small”. Besides, in the data set on hRSV (strain A2) (human respiratory syncytial virus, HEp-2, 120 h, hRSV, HEp2 cells, Day 5, read-out: IC50 (plaque number vs DMSO control)), the IC50 was about 50 µM.
On to `Cc1ccccc1NC(=S)N1CCOCC1` [Compound 30, N-(2-methylphenyl)morpholine-4-carbothioamide], for which the “Solubility in cell medium” value in data set [1] is reported as “very good”. Besides, the Toxicity result with HEp2 or BSC1 cells (setting [2]) is recorded as “low”.
In the same order, the values of `COc1ccc(NC(=O)Nc2ccccc2C)cc1` [Compound 15, 1-(4-methoxyphenyl)-3-(2-methylphenyl)urea] are “good” and “low”.
In the same order, the values of `COc1cccc(NC(=O)Nc2ccccc2C)c1` [Compound 13, 3-(3-methoxyphenyl)-1-(2-methylphenyl)urea] are “good” and “toxic at 100 μM”.
In the same order, the values of `Cc1ccccc1NC(=O)NCCCOCCOCCOCCCNC(=O)Nc1ccccc1C` [Compound 38, 1-(2-methylphenyl)-3-(3-{2-[2-(3-{[(2-methylphenyl)carbamoyl]-amino}propoxy)ethoxy]ethoxy}propyl)urea] are “good” and “toxic at 50 μM”.
For the molecule `N#Cc1cccc(NC(=O)Nc2ccccn2)c1` [Compound 11, 3-(3-cyanophenyl)-1-(pyridin-2-yl)urea], the “Solubility in cell medium” value in data set [1] is listed as “moderate”. Besides, the Toxicity entry in the data set on HEp2 or BSC1 cells (setting [2]) is recorded as “toxic at 100 μM”.
Take `Cc1ccccc1NC(=O)Nc1ccc(Br)cc1` [Compound 41, 1-(4-bromophenyl)-3-(o-tolyl)urea]: the “Solubility in cell medium” value in data set [1] is “Moderate at 100 μM”. In the data set with HEp2 or BSC1 cells (setting [2]), the Toxicity entry was “Low”.
In the same order, the values of `Cc1ccccc1NC(=O)Nc1cccc(Br)c1` [Compound 16, 1-(3-bromophenyl)-3-(2-methylphenyl)urea] are “moderate” and “toxic at 100 μM”.
